The results in this text go back to patent US12006330B2, “Substituted macrocyclic compounds and related methods of treatment” (Alkermes, Inc., priority 2020, dated 2024).

SMILES strings stand for the structures.

One data set deals with MDR1. Kind of data set: MDCK-MDR1 permeability assay. The note with it: dog, MDCK-MDR1, MDCK-MDR1 cells; for efflux ratio at 2 h, 3 μM: Papp B→A divided by Papp A→B, read-out: Efflux ratio (ER); for Papp A→B at 2 h, 3 μM: test compound 3 μM, 2 hours at 37 degrees C, apical to basolateral. The class given is in vitro ADME. The method, boiled down:
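Test compound at 3 μM in HBSS was dosed apical-to-basolateral (with 100 μM Lucifer Yellow) and basolateral-to-apical across MDCK-MDR1 monolayers at 37 °C for 2 h. Receiver and donor samples were quantified by LC-MS/MS. Papp = dQ/dt×1/A×C0, efflux ratio = Papp(B→A)/Papp(A→B), and percent recovery was also derived.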

Another data set deals with Sprague-Dawley rats. Kind of data set: Assessment of wake promotion in Sprague-Dawley rats (EEG/EMG). The class given is in vivo, rat. The note with it: male Sprague-Dawley rats; PO; 3 mpk; dosed at ZT5; 6-hour post-dose period. On the procedure:
Wake promotion was assessed using electroencephalography (EEG) and electromyography (EMG) in adult male Sprague-Dawley rats. All rats (Charles River Laboratories, Raleigh, NC, USA) were intraperitoneally implanted with telemetry devices (F50-EEE, Data Sciences International Inc., MN, USA) under isoflurane anesthesia. For EEG, stainless steel screws were implanted over frontal cortex and parietal cortex, and reference screws were placed over cerebellum. Additionally, an electrode was placed in neck muscle for EMG. Rats were given carprofen post-surgery and underwent a 7 to 10-day recovery period. Rats habituated to the experimental room for 7 days and were maintained on a 12-hour light-dark cycle.
EEG and EMG data were recorded using the DSI telemetry system and Ponemah software (Data Sciences International Inc., MN, USA). Sleep-wake stages were scored both manually and with Somnivore, a supervised machine learning software platform, in 10 second epochs. Records were visually inspected as needed post-processing.
All test compounds were dissolved in 5% DMSO and suspended in 95% saline with 0.5% methylcellulose and 0.5% tween. […] Unless otherwise indicated, all compounds were dosed orally. Recordings for each rat were initiated immediately after dosing and lasted for 6 hours post-dose.
Two key endpoints include wakefulness time and cortical activation time. Wakefulness time is derived from the sleep-wake stage analysis. Cortical activation time is based on the duration in which frontal gamma oscillatory activity (30-100 Hz), a key feature of wakefulness, was elevated relative to a pre-treatment baseline. Mean cortical activation time was computed relative to vehicle treatment for the 6-hour post-dose period.

Data set [1] in a line: Hepatocytes stability assay (human hepatocytes). It is filed as in vitro ADME. The following applies: both sexes, human, cryopreserved hepatocytes, cryopreserved human hepatocytes (pool of 50 mixed gender); 1 μM test compound; 1×10^6 cell/mL; 37 degrees C; read-out: CLint (μL/min/million cells). In outline:
(§1)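 Compound at 1 μM (0.1% DMSO) was incubated with cryopreserved pooled human hepatocytes, 1×10^6 cells/mL in Krebs-Henseleit buffer, at 37 °C, sampled up to 240 min. Parent depletion by LC-MS/MS; half-life from first-order decay gave CLint, scaled to hepatic clearance by well-stirred model (fu assumed 1) and extraction ratio.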

Another data set concerns human hepatocytes. Kind of data set: Hepatocytes stability assay (human hepatocytes). It is filed as in vitro ADME. The following applies: human hepatocytes; scaled hepatic clearance divided by liver blood flow (well-stirred model, fu assumed unity). The method, boiled down: as §1

In general, Papp A→B refers to the apparent permeability from the apical to the basolateral side of a cell layer. A higher Papp A→B goes with ready permeation. With `CC(C)S(=O)(=O)N[C@H]1CCCN2C(=O)COc3ccccc3C3CCC(CC3)OC[C@@H]12` (stereo in doubt) [Compound 3], in the data set on MDR1, the efflux ratio at 2 h, 3 μM turned out to be 10 and the Papp A→B at 2 h, 3 μM was 1.8 ×10⁻⁶ cm/s. Further, in the data set on Sprague-Dawley rats, the “Mean cortical activation time (% vehicle treatment)” value was 204.79 % vehicle treatment. In addition, the hepatocyte CLint at 1 μM in data set [1] was determined as 21 µL/min/1e6 cells. Besides, in the data set on human hepatocytes, the “Extraction Ratio (ER)” value came to 0.76.
The like results for `Cc1ccnc2c1C1CCC(CC1)OC[C@H]1[C@@H](NS(=O)(=O)C(C)C)CCCN1C(=O)CO2` (stereo in doubt) [Compound 10] were, in that order, greater than 100, 0.38 ×10⁻⁶ cm/s, 82.61 % vehicle treatment, 9.4 µL/min/1e6 cells and 0.58.
`O=C1COc2ccccc2C2CCC(CC2)OC[C@H]2[C@@H](NS(=O)(=O)C(F)(F)F)CCCN12` (stereo in doubt) [Compound 11]: in the data set with MDR1, the efflux ratio at 2 h, 3 μM worked out at 52 and the Papp A→B at 2 h, 3 μM worked out at 1.6 ×10⁻⁶ cm/s. Besides, the “Mean cortical activation time (% vehicle treatment)” value in the data set with Sprague-Dawley rats is listed as 411.43 % vehicle treatment. Further, the hepatocyte CLint at 1 μM in data set [1] is 4.2 µL/min/1e6 cells. Besides, the “Extraction Ratio (ER)” value in the data set on human hepatocytes is 0.38.
The like results for `Cc1ccnc2c1C1CCC(CC1)OC[C@H]1[C@@H](NS(C)(=O)=O)CCCN1C(=O)CO2` (stereo in doubt) [Compound 12] were, in that order, 74, 0.49 ×10⁻⁶ cm/s, 108.70 % vehicle treatment, 9.7 µL/min/1e6 cells and 0.59.
The like results for `CC(C)S(=O)(=O)N[C@H]1CCCN2C(=O)COc3ncccc3C3CCC(CC3)OC[C@@H]12` (stereo in doubt) [Compound 15] were, in that order, 100, 0.34 ×10⁻⁶ cm/s, 107.59 % vehicle treatment, 15 µL/min/1e6 cells and 0.69.
On to `Cc1ccc2c(c1)C1CCC(CC1)OC[C@H]1[C@@H](NS(C)(=O)=O)CCCN1C(=O)CO2` (stereo in doubt) [Compound 17], for which, in the data set on MDR1, the efflux ratio at 2 h, 3 μM is 40 and the Papp A→B at 2 h, 3 μM is 0.84 ×10⁻⁶ cm/s. Further, the “Mean cortical activation time (% vehicle treatment)” value in the data set on Sprague-Dawley rats is on record as 212.31 % vehicle treatment. In addition, the hepatocyte CLint at 1 μM in data set [1] turned out to be 7.5 µL/min/1e6 cells. Also, the “Extraction Ratio (ER)” value in the data set with human hepatocytes is recorded as 0.53.
The like results for `O=C1COc2nccnc2[C@H]2CC[C@H](CC2)OCC2[C@@H](NS(=O)(=O)C3CC3)CCCN12` (stereo in doubt) [Compound 65] were, in that order, greater than 100, 0.1 ×10⁻⁶ cm/s, 121.28 % vehicle treatment, less than 1.9 µL/min/1e6 cells and less than 0.22.
In the case of `CC(C)S(=O)(=O)N[C@H]1CCCN2C(=O)COc3nccnc3[C@H]3CC[C@H](CC3)OCC12` (stereo in doubt) [Compound 66], in the data set on MDR1, the efflux ratio at 2 h, 3 μM came out at 88 and the apparent permeability from apical to basolateral (Papp A→B) at 2 h, 3 μM turned out to be 0.22 ×10⁻⁶ cm/s. The “Mean cortical activation time (% vehicle treatment)” value in the data set with Sprague-Dawley rats is reported as 141.30 % vehicle treatment. The hepatocyte CLint at 1 μM in data set [1] is less than 1.9 µL/min/1e6 cells. Further, the “Extraction Ratio (ER)” value in the data set on human hepatocytes is listed as less than 0.22.
`Cc1ncnc2c1[C@H]1CC[C@H](CC1)OCC1[C@@H](NS(=O)(=O)C3CC3)CCCN1C(=O)CO2` (stereo in doubt) [Compound 68]: in the data set with MDR1, the efflux ratio at 2 h, 3 μM came out at 72 and the Papp A→B at 2 h, 3 μM is 0.24 ×10⁻⁶ cm/s. Further, the “Mean cortical activation time (% vehicle treatment)” value with Sprague-Dawley rats came to 157.14 % vehicle treatment. Moreover, the hepatocyte CLint at 1 μM in data set [1] turned out to be 3.9 µL/min/1e6 cells. In addition, the “Extraction Ratio (ER)” value in the data set with human hepatocytes was found to be 0.37.
The like results for `Cc1ccnc2c1[C@H]1CC[C@H](CC1)OCC1[C@@H](NS(=O)(=O)C3CC3)CCN1C(=O)CO2` (stereo in doubt) [Compound 92] were, in that order, 18, 3.4 ×10⁻⁶ cm/s, 97.94 % vehicle treatment, 24 µL/min/1e6 cells and 0.78.
